Laboratory results from ChEMBL document CHEMBL1129362 (J Med Chem, 1996).

What was measured:
[1] = molecular target: T1, Gastrin/cholecystokinin type B receptor (Homo sapiens, UniProt P32239); experiment: Binding affinity against human Cholecystokinin type B receptor by displacement of [125I]CCK-8
T1 sequence (P32239 whole entry): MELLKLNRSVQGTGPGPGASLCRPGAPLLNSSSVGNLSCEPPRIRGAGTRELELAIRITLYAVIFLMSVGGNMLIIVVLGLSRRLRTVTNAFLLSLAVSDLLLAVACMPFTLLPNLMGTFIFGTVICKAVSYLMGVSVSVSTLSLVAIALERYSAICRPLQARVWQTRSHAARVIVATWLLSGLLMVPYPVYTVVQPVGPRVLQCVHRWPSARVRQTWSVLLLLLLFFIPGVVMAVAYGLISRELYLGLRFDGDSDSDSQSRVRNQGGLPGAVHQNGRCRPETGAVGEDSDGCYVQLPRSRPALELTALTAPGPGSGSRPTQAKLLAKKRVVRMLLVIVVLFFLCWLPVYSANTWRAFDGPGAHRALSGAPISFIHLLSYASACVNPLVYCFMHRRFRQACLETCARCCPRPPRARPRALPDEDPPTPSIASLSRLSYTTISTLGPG

Cavia porcellus [2] = species: Cavia porcellus; experiment: Compound was tested for agonist activity of isolated guinea pig gallbladder by using functional assay; settings: read-out: ED50 (the source's name)
Cavia porcellus [3] = species: Cavia porcellus; experiment: Relative efficacy determined as maximal contraction was observed at 30 uM standardized to CCK-8; assay type: functional
[4] = molecular target: Cholecystokinin receptor (Homo sapiens) (UniProt P32239+P32238); experiment: Selectivity ratio between IC50 values of CCK-A and CCK-B; assay type: protein assay
[5] = molecular target: T2, Cholecystokinin receptor type A (Homo sapiens, UniProt P32238); experiment: Binding affinity against human Cholecystokinin type A receptor by displacement of [125I]CCK-8
T2 sequence (P32238 whole entry): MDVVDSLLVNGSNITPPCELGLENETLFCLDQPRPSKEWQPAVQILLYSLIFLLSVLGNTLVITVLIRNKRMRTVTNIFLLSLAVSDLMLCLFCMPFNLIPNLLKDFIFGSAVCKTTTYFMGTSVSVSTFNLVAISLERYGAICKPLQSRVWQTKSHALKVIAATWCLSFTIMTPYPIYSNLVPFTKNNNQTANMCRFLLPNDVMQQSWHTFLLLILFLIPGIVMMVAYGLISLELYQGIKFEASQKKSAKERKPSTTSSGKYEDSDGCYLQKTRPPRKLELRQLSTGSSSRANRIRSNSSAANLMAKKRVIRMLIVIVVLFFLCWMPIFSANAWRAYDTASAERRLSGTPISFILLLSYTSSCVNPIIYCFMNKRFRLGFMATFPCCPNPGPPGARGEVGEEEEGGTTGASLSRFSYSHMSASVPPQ

Mus musculus [6] = experiment: In vivo percent emptying of mouse gallbladder when administered intraperitoneally; assay type: functional
Mus musculus [7] = experiment: In vivo percent emptying of mouse gallbladder when administered orally; assay type: functional
Mus musculus [8] = experiment: Effective dose against mouse gall bladder emptying when administered intraperitoneally; assay type: functional; settings: ip
Mus musculus [9] = experiment: Effective dose against mouse gall bladder emptying when administered orally; assay type: functional; settings: po
Cavia porcellus [10] = species: Cavia porcellus; experiment: Relative efficacy as determined maximal contraction was observed at 30 uM standardized to CCK-8; assay type: functional
Mus musculus [11] = experiment: Effective dose against mouse gallbladder emptying when administered intraperitoneally; assay type: functional
Mus musculus [12] = experiment: Effective dose against mouse gallbladder emptying when administered orally; assay type: functional

Row | SMILES | IC50 [1] | EC50 (Cavia porcellus [2]) | Max (Cavia porcellus [3]) | Selectivity ratio [4] | IC50 [5] | other results
1 | COc1ccc(N(C(=O)CN2C(=O)C(C)(Cc3c[nH]c4ccccc34)C(=O)N(c3ccccc3)c3ccccc32)C(C)C)cc1 (stereo unspecified) | 17400 nM | 530 nM | 60% | 2090 |  | 
2 | COc1ccc(N(C(=O)CN2C(=O)C(Cc3c[nH]c4ccccc34)C(=O)N(c3ccccc3)c3ccccc32)C(C)C)cc1 (stereo unspecified) | 5250 nM | 340 nM | 70% | 480 |  | 
3 | COc1ccc(N(C(=O)CN2C(=O)C(C)(Cc3n[nH]c4ccccc34)C(=O)N(c3ccccc3)c3ccccc32)C(C)C)cc1 (stereo unspecified) | 69200 nM | 320 nM | 80% | 5100 |  | 
4 | CC(C)N(C(=O)CN1C(=O)C(C)(Cc2n[nH]c3ccccc23)C(=O)N(c2ccccc2)c2ccccc21)c1ccccc1 (stereo unspecified) | 2630 nM | 20 nM | 80% | 20 | 120 nM | 
5 | CC(C)N(C(=O)CN1C(=O)C(Cc2n[nH]c3ccccc23)C(=O)N(c2ccccc2)c2ccccc21)c1ccccc1 (stereo unspecified) | 178 nM | 140 nM | 90% | 2 | 87.1 nM | 
6 | CC(C)N(C(=O)CN1C(=O)C(C)(CC(=O)Nc2ccccc2)C(=O)N(c2ccccc2)c2ccccc21)c1ccccc1 (stereo unspecified) |  | 190 nM |  |  |  | Empty (Mus musculus [6]): <70%; Empty (Mus musculus [7]): <70%; ED50 (Mus musculus [8]): 0.03 µmol/kg; ED50 (Mus musculus [9]): 1 µmol/kg; Max (Cavia porcellus [10]): 80%
7 | COc1ccc(N(C(=O)CN2C(=O)C(Cc3n[nH]c4ccccc34)C(=O)N(c3ccccc3)c3ccccc32)C(C)C)cc1 (stereo unspecified) |  | 109 nM | 100% | 50 |  | Activity (Mus musculus [6]): <90%; Activity (Mus musculus [7]): <90%; ED50 (Mus musculus [11]): 0.2 nM·kg; ED50 (Mus musculus [12]): 8 nM·kg
8 | CC(C)N(C(=O)CN1C(=O)C(C)(Cc2c[nH]c3ccccc23)C(=O)N(c2ccccc2)c2ccccc21)c1ccccc1 (stereo unspecified) |  | 470 nM | 80% |  | 107 nM | 
9 | COc1ccc(N(C(=O)CN2C(=O)C(Cc3nn(C)c4ccccc34)C(=O)N(c3ccccc3)c3ccccc32)C(C)C)cc1 (stereo unspecified) | 2400 nM | 70 nM | 90% | 60 | 42.7 nM | 
10 | COc1ccc(N(C(=O)CN2C(=O)C(Cc3nn(Cc4ccccc4)c4ccccc34)C(=O)N(c3ccccc3)c3ccccc32)C(C)C)cc1 (stereo unspecified) | 100000 nM | 340 nM |  |  | 309 nM | Max (Cavia porcellus [10]): 40%
11 | CSCC[C@H](NC(=O)[C@H](Cc1ccc(OS(=O)(=O)O)cc1)NC(=O)[C@@H](N)CC(=O)O)C(=O)NCC(=O)N[C@@H](Cc1c[nH]c2ccccc12)C(=O)N[C@@H](CCSC)C(=O)N[C@@H](CC(=O)O)C(=O)N[C@@H](Cc1ccccc1)C(N)=O [SINCALIDE] |  | 2 nM |  |  |  | Empty (Mus musculus [6]): <95%; ED50 (Mus musculus [8]): 3e-05 µmol/kg; Max (Cavia porcellus [10]): 100%
